One data set has as its target T1, α3β4 nAChR (Homo sapiens, UniProt P30926+P32297).
T1 construct: expressed in transfected cells; host or cells: Xenopus laevis oocytes (injected RNA)
The data set can be described thus: Inhibition of α3β4 100 µM ACh-evoked peak currents. Type of data set: cell-based. As to the method: Although none of the other sulfonium compounds activated neuronal heteromeric receptors, several of them produced inhibition of ACh-evoked responses. Shown in Figure 7A are concentration-response studies for the compounds that were active antagonists of α3β4 nAChR (Table 3). Some compounds were also tested as antagonists of α4β2 subtypes formed with concatamers (Figure 7B).
Figure 7 Inhibition of heteromeric nAChR by sulfonium compounds. (A) Inhibition of α3β4 100 µM ACh-evoked peak currents by the co-application of the sulfonium compounds. Data are the averaged of six to eight oocytes (±SEM). To confirm the stability of the ACh responses, applications of ACh plus the sulfonium compounds were alternated with applications of ACh alone. (B) Inhibition of ACh control peak-current responses of α4-containing nAChR formed with concatamers by 100 µM of the sulfonium compounds indicated. Data are the average of six to eight oocytes (±SEM).
(§1) Experiments were conducted using OpusXpress 6000A (Molecular Devices, Union City, CA, USA). Both the voltage and current electrodes were filled with 3 M KCl. Oocytes were voltage-clamped at −60 mV at room temperature (24 °C). The oocytes were bath-perfused with Ringer’s solution (115 mM NaCl, 2.5 mM KCl, 1.8 mM CaCl2, 10 mM HEPES, and 1 μM atropine, pH 7.2) at 2 mL/min for α7 receptors, or 4 mL/min for heteromeric nAChR. To evaluate the effects of experimental compounds, responses were compared to control ACh-evoked responses, defined as the average of two initial applications of ACh made before test applications. ACh control concentrations were 60 µM for α7 receptors; 100 µM for α4(3)β2(2) and α3β4 receptors; 30 µM for α4β2α6β2β3 and muscle-type (αβ1εδ) receptors; and 10 µM for α4(3)β2(2) and α4(2)β2(2)α5 receptors.
(§2) Solutions were applied from 96-well plates via disposable tips. Drug applications were 12 s in duration, followed by 181 s washout periods for α7 receptors, or 6 s in duration followed by 301 s washout periods for heteromeric nAChR. The responses were calculated as both peak current amplitudes and net charge, as previously described. Data were collected at 50 Hz, filtered at 20 Hz for α7 receptors or filtered at 5 Hz for heteromeric nAChR, and analyzed by Clampfit (Molecular Devices, San Jose, CA, USA) and Excel (Microsoft, Redmond, WA, USA). Data were expressed as means ± SEM from at least four oocytes for each experiment and plotted with Kaleidagraph 4.5.2 (Abelbeck Software, Reading, PA, USA). Multi-cell averages were calculated for comparisons of complex responses. Averages of the normalized data were calculated for each of the 10,322 points in each of the 206.44 s traces (acquired at 50 Hz), as well as the standard errors for those averages.

Another data set concerns ganglionic (α3β4) nAChR. The arrangement: method as in earlier work. The note with it: 100 µM suplatast; ref 29 (Zhou et al.); cited from earlier work.
In data set [1] the target is T2, α7 nAChR (Homo sapiens, UniProt P36544).
T2 construct: expressed in transfected cells; host or cells: Xenopus laevis oocytes (injected RNA)
T2 sequence (P36544 23-502): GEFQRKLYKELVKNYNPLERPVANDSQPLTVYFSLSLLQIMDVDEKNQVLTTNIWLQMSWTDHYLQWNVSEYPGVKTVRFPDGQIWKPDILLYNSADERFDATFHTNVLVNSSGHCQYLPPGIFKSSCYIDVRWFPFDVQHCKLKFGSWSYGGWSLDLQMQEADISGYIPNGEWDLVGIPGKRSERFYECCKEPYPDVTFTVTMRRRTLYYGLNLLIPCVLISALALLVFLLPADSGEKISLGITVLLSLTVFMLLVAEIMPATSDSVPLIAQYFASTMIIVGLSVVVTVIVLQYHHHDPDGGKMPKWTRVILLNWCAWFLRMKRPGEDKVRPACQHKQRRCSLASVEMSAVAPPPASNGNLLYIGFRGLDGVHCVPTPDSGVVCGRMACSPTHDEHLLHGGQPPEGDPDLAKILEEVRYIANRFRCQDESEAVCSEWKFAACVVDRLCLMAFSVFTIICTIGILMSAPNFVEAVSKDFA
The data set can be described thus: α7 concentration-response on co-application with 10 µM PNU-120596. The note with it: peak currents, co-applied with 10 µM PNU-120596, Hill fit. It counts as cell-based. As to the method: (§3) Compounds were co-applied at a concentration of 100 µM with 30 µM racemic TQS (Figure 3A). All compounds except S4, S5, and S8 gave large responses when co-applied with TQS, consistent with silent agonism of α7 (see Table S1 for ANOVA). Active compounds were also evaluated across a range of concentrations with the alternative PAM, PNU-120596 (Figure 3B). The curve-fit values for Imax (Table 1) should be taken only as approximation of the relative efficacies of the compounds, due to the large variability frequently observed in PNU-120596-potentiated responses, as evidenced by the large SEMs of the responses obtained with high concentrations.
(§4) Figure 3 Responses of α7 nAChR to sulfonium compounds coapplied with PAMs. (A) Potentiation of α7 responses with 30 µM racemic TQS. Shown are the average net-charge responses of seven or eight oocytes ± SEM. (B) Concentration-response studies of peak currents generated by compounds that gave positive responses with TQS, coapplied with 10 µM PNU-120596. Each point represents the average (±SEM) of at least four oocytes.
as §1, §2

The target of data set [2] is T2, α7 nAChR. The data set can be described thus: Inhibition of α7 ACh-evoked responses. It counts as cell-based. As to the method: Figure 4 Effects sulfonium compounds on α7 ACh-evoked net-charge responses. (A) Effects of the sulfonium compounds at 100 µM co-applied with 60 µM relative to responses to 60 µM ACh applied alone. Data are the averages (±SEM) from seven or eight cells under each condition. (B) Effects of select sulfonium compounds at 1 mM co-applied with 60 µM relative to responses to 60 µM ACh applied alone. Data are the averages (±SEM) from seven or eight cells under each condition. Statistical significance was determined by pairwise t-test with p values corrected for multiple comparisons; * p < 0.05, ** p < 0.001.
The sulfonium compounds that were active with TQS but produced little inhibition of ACh response at a concentration of 100 µM were tested as inhibitors of ACh response at a concentration of 1 mM (Figure 4B).
We tested S8 across a range of concentrations for its ability to inhibit 60 µM ACh responses (Figure 5A). Note that we use 60 µM as an ACh control because this concentration gives nearly maximal (93%) net-charge responses, with the time course of the responses roughly following the speed of solution exchange. […] We tested whether inhibition of α7 responses by S8 was surmountable by increasing ACh concentration, consistent with a competitive mechanism of inhibition. However, since α7 responses to concentrations of ACh greater than 60 µM occur more rapidly than solution exchange in the chamber, we first pre-applied 5 µM S8 prior to the co-application of 5 µM S8 with either 60 µM or 1 mM ACh (Figure 5B). The 60 µM net-charge responses were reduced to 28 ± 2% of controls (n = 8) and 60 µM peak currents to 21 ± 3 % controls. The 1 mM net-charge responses were reduced to 56 ± 6 % of those obtained without S8 co-application, although the S8 co-application increased the peak-current amplitudes compared to 60 µM controls from 1.78 ± 0.15 to 3.72 ± 0.81 (n = 8).
Figure 5 Inhibition of α7 ACh-evoked responses by S8. (A) Concentration-response studies of α7 net-charge responses to 60 µM ACh co-applied with increasing concentrations of S8. To confirm the stability of the ACh responses, applications of ACh plus S8 were alternated with applications of ACh alone. Data are the averages of eight cells (±SEM). See text for curve-fit values. (B) Effects of 5 µM S8 on responses to either 60 µM or 1 mM ACh. The traces shown across the top are the averaged raw data from seven cells, each normalized to the peak current of the first ACh control response shown. In order to assure that the S8 was present at 5 µM throughout the ACh-evoked responses, a 30 s pre-application was made of 5 µM S8 alone. The lower traces show averaged responses to 60 µM or 1 mM ACh alone or with the 5 µM S8 pre- and co-application. The details of the data are described in Methods.
as §1
Solutions were applied from 96-well plates via disposable tips. Drug applications were 12 s in duration, followed by 181 s washout periods for α7 receptors, or 6 s in duration followed by 301 s washout periods for heteromeric nAChR. […]

Data set [3] concerns the target T2, α7 nAChR. The data set can be described thus: α7 responses on co-application with the type II PAM TQS (silent agonism). It counts as cell-based. As to the method:
as §3, §4
The human nAChR clones were obtained from Jon Lindstrom (University of Pennsylvania, Philadelphia, PA, USA). Mouse muscle subunit clones were obtained from Jim Boulter (Salk Institute, La Jolla, CA, USA) and Paul Gardner (Dartmouth, Hanover, NH, USA). The human resistance-to-cholinesterase 3 (RIC3) clone was obtained from Millet Treinin (Hebrew University, Jerusalem, Israel) and co-injected with α7 to improve the level and speed of α7 receptor expression without affecting the pharmacological properties of the receptors. Subsequent to linearization and purification of the plasmid DNAs, RNAs were prepared using the mMessage mMachine in vitro RNA transcription kit (Ambion, Austin, TX, USA).
as §1, §2

On the set-up of data set [4]: method as in PMID 11456386. Conditions: cited from earlier work.
For data set [5] the following is noted: general knowledge, no reference given; cited from earlier work.
Another data set concerns the target T3, human α7 receptors (Homo sapiens, UniProt P36544).
T3 construct: expressed in transfected cells; host or cells: Xenopus laevis oocytes (injected RNA)
The arrangement: method as in PMID 12183330. Conditions: 60 µM ACh; cited from earlier work.

Data set [6] has as its target T4, muscle-type (α1β1εδ) receptors (Mus musculus, UniProt P02716+P04756+P20782).
T4 construct: expressed in transfected cells; host or cells: Xenopus laevis oocytes (injected RNA)
Conditions: cited from earlier work.

The test system of another data set is α7. Conditions: alone and co-applied with an α7 PAM; cited from earlier work.

Broadly, the IC50 is the concentration at which inhibition is half-maximal. Higher therefore signals weaker potency. What is called EC50 is the concentration giving half of the maximal effect. The inhibition is the change of the read-out against control, counted positive when it falls.

T1 sequence (P32297 32-505): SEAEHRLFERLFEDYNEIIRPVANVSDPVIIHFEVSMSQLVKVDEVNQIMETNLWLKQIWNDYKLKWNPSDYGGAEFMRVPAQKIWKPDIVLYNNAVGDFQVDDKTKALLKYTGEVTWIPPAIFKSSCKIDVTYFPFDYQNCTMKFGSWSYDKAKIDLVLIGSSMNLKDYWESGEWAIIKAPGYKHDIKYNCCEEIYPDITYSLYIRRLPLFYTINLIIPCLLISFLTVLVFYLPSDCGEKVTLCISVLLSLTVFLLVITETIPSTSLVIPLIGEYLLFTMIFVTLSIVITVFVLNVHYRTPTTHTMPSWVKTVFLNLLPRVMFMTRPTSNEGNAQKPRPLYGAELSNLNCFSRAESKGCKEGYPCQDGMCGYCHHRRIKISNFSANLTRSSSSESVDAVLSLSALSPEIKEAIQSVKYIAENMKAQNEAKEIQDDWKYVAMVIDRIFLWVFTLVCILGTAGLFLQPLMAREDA
T1 sequence (P30926 22-498): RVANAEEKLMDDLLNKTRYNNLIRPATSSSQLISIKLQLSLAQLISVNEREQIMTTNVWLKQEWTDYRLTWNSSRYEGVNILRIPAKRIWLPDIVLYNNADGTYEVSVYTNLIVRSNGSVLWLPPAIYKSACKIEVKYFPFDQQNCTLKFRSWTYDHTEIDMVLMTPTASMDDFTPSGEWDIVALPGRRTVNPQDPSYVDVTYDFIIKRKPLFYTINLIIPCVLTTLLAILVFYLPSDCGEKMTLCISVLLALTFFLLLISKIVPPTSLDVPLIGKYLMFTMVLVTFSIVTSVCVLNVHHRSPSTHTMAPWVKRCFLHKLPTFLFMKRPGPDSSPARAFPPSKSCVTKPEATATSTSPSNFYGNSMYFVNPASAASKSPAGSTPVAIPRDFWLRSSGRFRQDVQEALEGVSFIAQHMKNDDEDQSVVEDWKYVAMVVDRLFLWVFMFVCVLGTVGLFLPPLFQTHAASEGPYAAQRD
T3 sequence (P36544 23-502): as the sequence (P36544 23-502) above
T4 sequence (P04756 21-457): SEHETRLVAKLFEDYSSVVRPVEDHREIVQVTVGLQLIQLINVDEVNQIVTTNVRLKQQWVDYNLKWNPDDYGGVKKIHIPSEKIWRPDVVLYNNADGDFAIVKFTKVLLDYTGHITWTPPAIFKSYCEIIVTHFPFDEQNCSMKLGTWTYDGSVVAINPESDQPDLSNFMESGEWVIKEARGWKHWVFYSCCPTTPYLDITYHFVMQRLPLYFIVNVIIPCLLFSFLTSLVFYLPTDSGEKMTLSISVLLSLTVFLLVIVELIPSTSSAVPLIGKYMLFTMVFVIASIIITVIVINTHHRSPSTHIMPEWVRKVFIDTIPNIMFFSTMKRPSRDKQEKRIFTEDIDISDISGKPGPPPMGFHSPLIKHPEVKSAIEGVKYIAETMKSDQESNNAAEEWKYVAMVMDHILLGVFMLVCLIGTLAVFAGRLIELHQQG
T4 sequence (P09690 24-501 partner): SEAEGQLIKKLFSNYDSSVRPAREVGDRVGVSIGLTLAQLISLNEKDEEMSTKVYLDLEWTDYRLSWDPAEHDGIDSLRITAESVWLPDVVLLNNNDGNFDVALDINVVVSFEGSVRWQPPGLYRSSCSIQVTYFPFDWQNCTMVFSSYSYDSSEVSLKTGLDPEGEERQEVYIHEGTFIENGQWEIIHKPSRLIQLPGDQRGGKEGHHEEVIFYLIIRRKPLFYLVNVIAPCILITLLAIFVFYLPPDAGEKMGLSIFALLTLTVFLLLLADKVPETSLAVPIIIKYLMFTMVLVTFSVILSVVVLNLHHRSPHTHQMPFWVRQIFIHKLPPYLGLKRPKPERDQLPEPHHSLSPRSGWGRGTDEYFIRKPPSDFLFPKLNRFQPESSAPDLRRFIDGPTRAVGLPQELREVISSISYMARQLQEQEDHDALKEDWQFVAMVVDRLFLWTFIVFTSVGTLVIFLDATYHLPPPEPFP
T4 sequence (P20782 21-493): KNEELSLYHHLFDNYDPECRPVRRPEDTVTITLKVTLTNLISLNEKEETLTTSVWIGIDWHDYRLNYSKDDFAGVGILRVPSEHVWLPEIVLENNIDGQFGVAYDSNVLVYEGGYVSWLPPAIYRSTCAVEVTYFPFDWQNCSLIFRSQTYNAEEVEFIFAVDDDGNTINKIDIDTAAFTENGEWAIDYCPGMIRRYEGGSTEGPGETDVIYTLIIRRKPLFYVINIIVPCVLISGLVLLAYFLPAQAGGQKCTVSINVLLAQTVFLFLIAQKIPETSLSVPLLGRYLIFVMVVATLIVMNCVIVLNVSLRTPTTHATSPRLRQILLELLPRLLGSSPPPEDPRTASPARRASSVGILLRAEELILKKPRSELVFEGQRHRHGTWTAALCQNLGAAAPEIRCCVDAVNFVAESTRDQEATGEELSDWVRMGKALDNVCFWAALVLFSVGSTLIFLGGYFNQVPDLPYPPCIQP
T4 sequence (P02716 25-520): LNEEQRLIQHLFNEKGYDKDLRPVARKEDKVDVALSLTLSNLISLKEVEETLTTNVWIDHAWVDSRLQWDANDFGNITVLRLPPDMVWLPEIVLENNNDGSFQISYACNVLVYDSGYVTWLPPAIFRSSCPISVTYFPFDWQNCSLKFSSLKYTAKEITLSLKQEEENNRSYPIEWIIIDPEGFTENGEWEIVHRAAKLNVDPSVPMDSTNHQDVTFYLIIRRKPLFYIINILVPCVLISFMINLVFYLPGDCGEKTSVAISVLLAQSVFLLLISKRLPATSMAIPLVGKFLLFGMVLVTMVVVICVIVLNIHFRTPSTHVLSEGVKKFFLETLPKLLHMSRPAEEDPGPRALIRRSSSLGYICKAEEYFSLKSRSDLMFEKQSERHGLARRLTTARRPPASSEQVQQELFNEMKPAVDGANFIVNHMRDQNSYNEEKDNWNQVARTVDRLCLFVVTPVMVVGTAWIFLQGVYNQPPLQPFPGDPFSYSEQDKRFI

In the case of `CCOCC(O)COc1ccc(NC(=O)CC[S+](C)C)cc1.Cc1ccc(S(=O)(=O)[O-])cc1` (stereo not drawn) [Compound S6, (3-((4-(3-ethoxy-2-hydroxypropoxy)phenyl)amino)-3-oxopropyl)dimethylsulfonium tosylate, reference compound], the “surmountability of α3β4 inhibition by ACh” value at α3β4 nAChR (5 µM S6, 1 mM ACh vs 30 µM ACh, data not shown) is reported as “not surmountable by increasing ACh concentration”. On α3β4 nAChR (co-application with 100 µM ACh, peak currents), this compound yielded an IC50 of 4.5 ± 0.6 µM. Moreover, in the data set with ganglionic (α3β4) nAChR, the “effect on ganglionic (α3β4) nAChR” value is reported as “channel block”. In addition, the “IMax (PNU Activation)” value on α7 nAChR [1] (approximation only) is reported as 2.2 ± 0.3. The EC50 on α7 nAChR [1] (read-out: EC50 (PNU Activation)) turned out to be 12.5 ± 4.9 µM. For the same compound, the inhibition at 100 µM at α7 nAChR [2] (compound co-applied at 100 µM, net charge, read-out: inhibition of responses to 60 µM ACh) is roughly 50%. Further, the “relative activity as α7 silent agonist / desensitizer (rank order)” value at α7 nAChR [3] (100 µM with 30 µM TQS, Figure 3A, listed as suplatast) is “most desensitizing”. The “α7 functional classification (silent agonist / inactive)” value on α7 nAChR [3] (inactive alone, active with a PAM = silent agonist) is given as “silent agonist activity”. In addition, in data set [4], the “distribution to the brain” value was “poor” and the oral bioavailability entry was “orally bioavailable”.

With `O=[N+]([O-])c1ccc(O)cc1` [para-nitrophenol], the “pKa for the phenolic hydroxyl” value in data set [5] was ~ 7.

In the case of `CC(=O)OCC[N+](C)(C)C` [ACh, Acetylcholine chloride, reference compound], the “1 mM ACh peak-current amplitudes compared to 60 µM controls” value at α7 nAChR [2] (1 mM ACh without S8, n = 8) is 1.78 ± 0.15. On human α7 receptors, the “net-charge response as share of maximal” value is reported as 93%.

For `C[N+](C)(C)C` [TMA, tetramethylammonium ion], in [6], the “activation of muscle-type receptors” value is reported as “not an effective activator”.

Take `CC[S+]1CCN(c2ccccc2)CC1.O=S(=O)([O-])C(F)(F)F` [1-ethyl-4-phenylthiomorpholin-1-ium trifluoromethanesulfonate]: the “behaviour at α7” value in the data set on α7 is “inactive when applied alone but active when co-applied with an α7 PAM”.

The values are drawn from publication PMC8464850, “Sulfonium Ligands of the α7 nAChR” (Molecules, 2021).
